One data set relates to Mouse Skin Keratinocytes. Briefly: MTT cytotoxicity assay, mouse skin keratinocytes. The data set is classed as cell-based. Particulars: Keratinocyte, read-out: IC50 Keratinocytes. In general terms: Formazan colour is commonly taken as a measure of viable cells.
The subject of data set [1] is polyubiquitinated proteins. Description: Western blot of polyubiquitinated proteins, SKOV3 cells. Particulars: 4 h. The data set is classed as cell-based, human. As to the method:
FIG. 14A illustrates SKOV3 cells treated with compounds for 4 h and analyzed by Western blot analysis with antibody to ubiquitin.
Antibodies, reagents, and Western Blot Analyses: Cell lysate (10-20 μg total protein) prepared in MPER (Pierce) from each sample was subjected to SDS-PAGE, transferred to PVDF membranes and analyzed by Western blot using antibodies specific Bax (#2772, Cell Signaling), ubiquitin (P4D1, sc-8017, Santa Cruz), PARP (#9542, BD Pharmingen), actin (#66009, Protein Tech Group), Tubulin(#66031, Protein Tech Group), ADRM1/Rpn13 (D9Z1U, #12019, Cell Signaling), Lys48-linkled ubiquitin (Apu 2, 05-1307, (Millipore), Annexin V (#559763, BD pharmingen), caspase-3 (51-68655X, BD Pharmingen) at the dilutions recommended by the manufacturers, and for secondary antibodies either peroxidase-linked anti-mouse IgG or anti-rabbit IgG (GE Healthcare UK Ltd) were utilized, HRP conjugated streptavidin (N100, Thermo Fisher) at the recommended dilution (1:5000). MitoTracker Red CMXRos reagent was purchased from ThermoFisher #M7512. The blots were developed using HyGLO chemiluminescent detection reagent (Denville).
(In general: In western blotting, separated proteins are transferred to a membrane and probed.)

A further data set concerns ROS. Description: ROS by Amplex Red, ES2 cells. The format is cell-based, human. Particulars: ES2, 12 hr; listed in order of potency. The procedure:
FIG. 16C illustrates ES2 cells treated for 12 hr with compounds (or as a positive control, H2O2) at the indicated doses, and then reactive oxygen species (i.e. ROS) levels measured by adding Amplex Red and HRP.
Amplex Red Assay to measure ROS: Amplex Red reagent (#A12222, Thermo Scientific) combined with horseradish peroxidase (HRP) was used to detect H2O2. Briefly cells were treated in 96 well plates with corresponding compounds at indicated times. Next 50 μM Amplex® Red reagent plus 1 U/mL HRP in 50 mM sodium phosphate buffer, pH 7.4, were added to cells and incubated for 30 minutes at room temperature. Fluorescence was measured with a fluorescence-based microplate reader using excitation at 530±12.5 nm and detection at 580±25 nm. Background fluorescence of 969 units for Amplex® Red reagent, determined for a no-H2O2 control reaction, was subtracted from each value. H2O2 treatment (1 h) was used as positive control.

The test system of another data set is intracellular ATP. Briefly: Luciferase-based ATP measurement, ES2 cells. The format is cell-based, human. Particulars: luciferase expressing ES2 cells, 4 hr, sublethal doses. The procedure:
Briefly, firefly luciferase expressing ES2 cells were treated for 4 hr with compounds at sublethal doses and the bioluminescence was measured in intact cells using luminometer by adding luciferin. […] This is associated with enhanced glycolysis while bortezomib suppresses oxidative phosphorylation (OXPHOS) (66).
ATP measurement assay: To measure ATP levels in cells, luciferase based bioluminescence assay was performed. Briefly cells stably expressing firefly luciferase plated in a 6 well plate (250,000 cells/well) in growth medium. After 24 h incubation, cells were treated with compounds at indicated concentrations for the period of 4 h and the bioluminescence was measured by IVIS 200 imager in intact cells by adding luciferin substrate to the growth medium. Cell viability was assessed in parallel using an MTT assay.

Another data set deals with PEA1. Description: cells. Particulars: read-out: cytotoxicity IC50 PEA1.
In a further data set the test system is PEO14. Briefly: cells. Particulars: read-out: cytotoxicity IC50 PEO14.
A further data set has as its system HeLa. Description: MTT cytotoxicity assay, HeLa. Particulars: read-out: cytotoxicity IC50 HeLa, Tables 3A/4B/4C.
A further data set deals with SSC90. Description: MTT cytotoxicity assay, SSC90.
Another data set relates to BR5-Luc. Description: MTT cytotoxicity assay, BR5-Luc. Particulars: read-out: cytotoxicity IC50 BR5-Luc, Tables 3A/4B/4C, BRCA2 − VE.
A further data set has as its system BR5-FvB1. Briefly: MTT cytotoxicity assay, BR5-FvB1. Particulars: Mus musculus, read-out: cytotoxicity IC50 BR5-FvB1.
The next data set concerns ME180. Briefly: MTT cytotoxicity assay, ME180. The data set is classed as cell-based. Particulars: Homo sapiens, read-out: IC50 ME180.
Another data set deals with MM.1S. Description: MTT cytotoxicity assay, MM.1S. The data set is classed as cell-based. Particulars: Homo sapiens, MM1.S, read-out: IC50 MM.1S.
Another data set concerns RPMI8226. Briefly: MTT cytotoxicity assay, RPMI8226. The data set is classed as cell-based. Particulars: Homo sapiens, read-out: IC50 RPMI8226.
Another data set relates to RPMI8226-V10R. Briefly: MTT cytotoxicity assay, RPMI8226-V10R. Particulars: read-out: IC50 RPMI8226-V10R. The data set is classed as cell-based.
Another data set deals with ANBL6. Description: MTT cytotoxicity assay, ANBL6. The format is cell-based. Particulars: Homo sapiens, read-out: IC50 ANBL6.
The subject of another data set is ANBL6-V10R. Briefly: MTT cytotoxicity assay, ANBL6-V10R. The data set is classed as cell-based. Particulars: read-out: IC50 ANBL6-V10R.
Another data set relates to MDA-MB231. Description: MTT cytotoxicity assay, MDA-MB231. The data set is classed as cell-based. Particulars: Homo sapiens, read-out: IC50 MDA-MB231.
Another data set concerns SUM1315. Briefly: cells. Particulars: read-out: cytotoxicity IC50 SUM1315.
A further data set has as its system ES2. Description: MTT cytotoxicity assay, ES2.
A further data set has as its system CaSki. Briefly: MTT cytotoxicity assay, CaSki.
The next data set has as its system LNCaP. Briefly: MTT cytotoxicity assay, LNCaP. Particulars: Homo sapiens.
Another data set deals with HCC1395. Description: MTT cytotoxicity assay, HCC1395. Particulars: Homo sapiens, HCC1395, read-out: cytotoxicity IC50 HCC1395.
The mark [2] stands for this setting: Table 3, MTT, 48 hr, normal Mouse Skin.
Setting [3] is: read-out: cytotoxicity IC50 SSC90, Tables 3A/4B/4C, MTT assay.
[4] abbreviates: read-out: cytotoxicity IC50 CasKi, Tables 3A/4B/4C, MTT assay.
Setting [5] is: read-out: cytotoxicity IC50 ES2, Tables 3A/4B/4C, MTT assay.
The mark [6] stands for this setting: Table 3, MTT, 48 hr, Multiple Myeloma, bortezomib resistant.
The mark [7] stands for this setting: read-out: cytotoxicity IC50 LNCAP.

Six compounds from patent publication US12673918B2, “Small molecule RPN13 inhibitors with antitumor properties” (The Johns Hopkins University, priority 2019, dated 2026) can be followed below.

SMILES strings stand for the structures. Where two headings read alike, the source gives them in different places.

Protocol for ANBL6-V10R: (§1) The cytotoxic efficacy of selected compounds was assessed against multiple myeloma (MM) cell lines, as this is a validated clinical target for the licensed proteasome inhibitors.
(§2) Cell lines and cytotoxicity assays: All cell lines were obtained from the American Type Culture Collection (ATCC) and cultured in the specified medium supplemented with 10% fetal bovine serum, 100 IU/mL penicillin, and 100 μg/mL streptomycin at 37° C. in a humidified 5% CO2/95% air incubator. […] To assess drug cytotoxicity, cells were seeded at 2,500 cells/well (10,000 cells/well for MM lines) in 100 μL medium in 96-well plate and after 24 treated with compounds for 72 h, incubated according to the manufacturer's protocol with the Thiazolyl Blue Tetrazolium Bromide (Sigma, M2128) and A570 measured using a Benchmark Plus microplate spectrophotometer (BIO-RAD). IC50 data was analyzed by Graphpad Prism software.
Protocol for BR5-FvB1: (§3) Cell lines and cytotoxicity assays: All cell lines were obtained from the American Type Culture Collection (ATCC) and cultured in the specified medium supplemented with 10% fetal bovine serum, 100 IU/mL penicillin, and 100 μg/mL streptomycin at 37° C. in a humidified 5% CO2/95% air incubator. […] To assess drug cytotoxicity, cells were seeded at 2,500 cells/well (10,000 cells/well for MM lines) in 100 μL medium in 96-well plate and after 24 treated with compounds for 72 h, incubated according to the manufacturer's protocol with the Thiazolyl Blue Tetrazolium Bromide (Sigma, M2128) and A570 measured using a Benchmark Plus microplate spectrophotometer (BIO-RAD). IC50 data was analyzed by Graphpad Prism software. In the chirality studies the cells were treated with compounds for 48 h, and the cells were incubated and measured via the preceeding protocols.
Protocol for MDA-MB231: as §2
Protocol for ME180: as §2
Protocol for MM.1S: as §1, §2
Protocol for Mouse Skin Keratinocytes: as §2
Protocol for PEA1: as §3
Protocol for PEO14: as §3
Protocol for RPMI8226-V10R: as §1, §2
Protocol for SUM1315: as §3

Regarding `CC(C)C[C@H](NC(=O)[C@H](Cc1ccccc1)NC(=O)c1cnccn1)B(O)O` [Bortezomib, bortezomib, reference compound], the IC50 with Mouse Skin Keratinocytes (setting [2]) was greater than 100 nM; in the data set with PEA1, 30 nM; with PEO14, 30 nM; with HeLa, 3 nM; in the data set with SSC90 (setting [3]), 15 nM; with BR5-Luc it was 4.1 nM. The IC50 with BR5-FvB1 was less than 20 nM. Also, the “accumulation of polyubiquitinated proteins” value (“accumulation” below) in data set [1] is “enhanced the accumulation of polyubiquitinated proteins”. For the same compound, in the data set with ROS, the “level of ROS (Amplex Red)” value is given as “raised the level of ROS in a dose-dependent manner”. For the same compound, in the data set on intracellular ATP, the “ATP-dependent bioluminescence (intracellular ATP levels)” value (“ATP-dependent bioluminescence” for short) was “not evident”.
As for `O=C(CCl)N[C@@H](Cc1ccccc1)C(=O)N1C/C(=C\c2ccc([N+](=O)[O-])cc2)C(=O)/C(=C/c2ccc([N+](=O)[O-])cc2)C1` [RA375], the IC50 in the data set on ME180 (ME-180, 48 h) amounted to 20 nM; in the data set on MM.1S (48 h), 11 nM; with RPMI8226 (RPMI-8226, 48 h), 9 nM; in the data set with RPMI8226-V10R (48 h), 6 nM; in the data set on ANBL6 (ANBL-6, 48 h), 12 nM; in the data set on ANBL6-V10R (48 h), 16 nM. The IC50 with MDA-MB231 (MDA-MB-231, 48 h) is 22 nM; in the data set with Mouse Skin Keratinocytes (Mus musculus, 48 h), greater than 1000 nM; in the data set on SUM1315, 19 nM; in the data set with ES2 (read-out: IC50 ES2), 19 nM; in the data set with CaSki (read-out: IC50 CaSki) it was 43 nM; in the data set with CaSki (setting [4]), 3 nM. Also, the IC50 in the data set with SSC90 (read-out: IC50 SSC90) was determined as 24 nM; with LNCaP (48 h, read-out: IC50 LNCaP), 60 nM.
For the compound `C[C@H]1/C(=C\c2ccc([N+](=O)[O-])cc2)C(=O)/C(=C/c2ccc([N+](=O)[O-])cc2)CN1C(=O)[C@@H](N)Cc1ccccc1`, in data set [1], the “accumulation” value was “enhanced the accumulation of polyubiquitinated proteins”. The “level of ROS (Amplex Red)” value in the data set on ROS is on record as “raised the level of ROS in a dose-dependent manner”. In the data set with intracellular ATP, the “ATP-dependent bioluminescence” value is “reduced bioluminescence”. Besides, the IC50 in the data set on SUM1315 came to 258 nM; with PEA1 it was 70 nM; in the data set on PEO14, 92 nM; in the data set with ES2 (setting [5]) it was 40 nM; in the data set on CaSki (setting [4]), 27 nM; in the data set with BR5-Luc, 5.7 nM. In addition, the IC50 turned out to be 75 nM with HCC1395 and 125 nM in the data set on BR5-FvB1.
Consider `N[C@@H](Cc1ccccc1)C(=O)N1C/C(=C\c2ccc(Cl)c(Cl)c2)C(=O)/C(=C/c2ccc(Cl)c(Cl)c2)C1` [RA190, reference compound], for which the IC50 in the data set with ME180 (ME-180, Table 3, MTT, 48 hr, Cervical (HPV +ve)) is 183 nM; in the data set with MM.1S (Table 3, MTT, 48 hr, Multiple Myeloma), 72 nM; with RPMI8226 (RPMI-8226, Table 3, MTT, 48 hr, Multiple Myeloma) it was 45 nM; in the data set on RPMI8226-V10R (setting [6]), 47 nM; in the data set with ANBL6 (ANBL-6, Table 3, MTT, 48 hr, Multiple Myeloma), 67 nM; with ANBL6-V10R (setting [6]) it was 55 nM. Besides, the IC50 in the data set with MDA-MB231 (MDA-MB-231, Table 3, MTT, 48 hr, Triple Negative Breast) was 134 nM; with Mouse Skin Keratinocytes (setting [2]), greater than 1000 nM; in the data set with SUM1315 it was 1370 nM; in the data set with PEA1, 386 nM; in the data set on PEO14, 375 nM; with ES2 (setting [5]), 115 nM. Further, the IC50 with HeLa stood at 85 nM; with CaSki (setting [4]), 324 nM; in the data set with SSC90 (setting [3]), 625 nM; with LNCaP (setting [7]), 242 nM; with BR5-Luc it was 38 nM; in the data set with HCC1395 it was 0.35 nM. Besides, the IC50 with BR5-FvB1 was 250 nM.
For `N[C@@H](Cc1ccccc1)C(=O)N1C/C(=C\c2ccc([N+](=O)[O-])cc2)C(=O)/C(=C/c2ccc([N+](=O)[O-])cc2)C1` [RA183, reference compound], the IC50 in the data set with ME180 (ME-180, 48 h) was 293 nM; in the data set on MM.1S (48 h), 46 nM; in the data set on RPMI8226 (RPMI-8226, 48 h), 88 nM; in the data set on RPMI8226-V10R (48 h), 139 nM; in the data set with ANBL6 (ANBL-6, 48 h), 58 nM; in the data set on ANBL6-V10R (48 h) it was 103 nM. Also, the IC50 was 124 nM in the data set on MDA-MB231 (MDA-MB-231, 48 h); greater than 1000 nM with Mouse Skin Keratinocytes (Mus musculus, 48 h); 75 nM with ES2 (read-out: IC50 ES2, Table 3, MTT, 48 hr, Ovarian); 75 nM in the data set with ES2 (setting [5]); 112 nM in the data set with HeLa; 312 nM in the data set with CaSki (read-out: IC50 CaSki, Table 3, MTT, 48 hr, Cervical (HPV +ve)). Moreover, the IC50 is 312 nM with CaSki (setting [4]); 186 nM with LNCaP (48 h, read-out: IC50 LNCaP); 186 nM in the data set on LNCaP (setting [7]). Further, the “accumulation” value in data set [1] is “enhanced the accumulation of polyubiquitinated proteins”. For the same compound, the “level of ROS (Amplex Red)” value with ROS is given as “raised the level of ROS in a dose-dependent manner”. The “ATP-dependent bioluminescence” value with intracellular ATP was “reduced bioluminescence”.
On to `CC1/C(=C\c2ccc([N+](=O)[O-])cc2)C(=O)/C(=C/c2ccc([N+](=O)[O-])cc2)CN1C(=O)[C@H](Cc1ccccc1)NC(=O)CCl` (stereo partly shown) [RA414], for which, in data set [1], the “accumulation” value is recorded as “enhanced the accumulation of polyubiquitinated proteins”. In the data set with ROS, the “level of ROS (Amplex Red)” value is recorded as “raised the level of ROS in a dose-dependent manner”. Further, the IC50 is 20 nM in the data set with SUM1315; 30 nM with PEA1; 30 nM in the data set with PEO14; 7.5 nM in the data set on ES2 (setting [5]); 3 nM with HeLa; less than 20 nM in the data set with SSC90 (setting [3]). Further, the figures for the IC50 in the data set with LNCaP (setting [7]) and in the data set with HCC1395 were 24 nM and less than 15 nM, respectively.
